# Measured values from US20250018048A1, “FLUCONAZOLE-COX INHIBITOR HYBRIDS: A DUAL-ACTING CLASS OF ANTIFUNGAL AZOLES” (Ramot at Tel-Aviv University Ltd., priority 2022, published 2025).
# What was measured:
# Type in all cases: cell-based
# C. albicans ATCC 24433 = experiment: MIC80 broth double-dilution assay; conditions: YPAD medium, 30° C., 24 h
# Procedure: (§1) The antifungal activities of the 24 azole-COX inhibitor hybrids were evaluated against a panel of 16 representative strains of different species of the genus Candida. Candida species cause both superficial and systemic infections. The panel included strains of C. albicans, C. glabrata, C. parapsilosis, C. tropicalis, C. guilliermondii, C. dubliniensis, and C. auris (Table S2). To evaluate antifungal activity, the minimal inhibitory concentration 80% (MIC80) values were determined, which were defined as the lowest drug concentrations with turbidity (measured at OD600) less than or equal to that of specific 1:5 dilutions of the growth control. As controls, FLC and VOR, were tested.
# (§2) MIC80 values were determined using the broth microdilution method over a concentration range of 0.003-64 μg/mL. Orange circles represent C. albicans strains, yellow circles represent C. glabrata strains, and green circles represent C. parapsilosis, C. tropicalis, C. dubliniensis and C. auris. Cells were grown in YPAD medium at 30° C. (For C. auris strains 37° C.) 24 h. Each concentration was tested in triplicate, and results were confirmed in at least two independent experiments.
# (§3) C. albicans, C. glabrata, C. parapsilosis, C. guilliermondii, C. tropicalis, and C. dubliniensis MICs were determined using CLSI M27-A3 guidelines with minor modifications. Starter cultures were streaked from glycerol stock onto YPAD agar plates and grown for 24 h at 30° C. Colonies were suspended in 1 mL PBS and diluted to 1×10^−3 OD600 and then diluted 1:100 into fresh medium. Hybrids dissolved in DMSO were added to YPAD broth (32 μL stock solution in 1218 μL of YPAD broth), and serial double dilutions of hybrids in YPAD were prepared in flat-bottomed 96-well microplates (Corning) to enable testing of concentrations ranging from 64 μg/mL to 0.003 μg/mL. Control wells with yeast cells but no drug and blank wells containing only YPAD were prepared. An equal volume (100 μL) of yeast suspensions in YPAD broth was added to each well with the exceptions of the blank wells. MIC values (Tables S4-S6) were determined after 24 h at 30° C. by measuring the OD600 using a plate reader (Infinite M200 PRO, Tecan). MIC values were defined as the point at which the OD600 was reduced by >80% compared to the no-drug wells. Each concentration was tested in triplicate, and results were confirmed by two independent sets of experiments. FLC and VOR were used as control drugs.
# C. tropicalis 660 = experiment: MIC80 broth double-dilution assay; conditions: YPAD medium, 30° C., 24 h
# Procedure: as §1, §2, §3
# C. dubliniensis T-99 = experiment: MIC80 broth double-dilution assay; conditions: YPAD medium, 30° C., 24 h
# Procedure: as §1, §2, §3
# C. albicans SC5314 = experiment: MIC80 broth double-dilution assay; conditions: YPAD medium, 30° C., 24 h
# Procedure: as §1, §2, §3
# C. albicans P-87 = experiment: MIC80 broth double-dilution assay; conditions: YPAD medium, 30° C., 24 h
# Procedure: as §1, §2, §3
# [1] = test system: C. parapsilosis ATCC 22019; experiment: MIC80 broth double-dilution assay; conditions: YPAD medium, 30° C., 24 h
# Procedure: as §1, §2, §3
# C. albicans ATCC 90028 = experiment: MIC80 broth double-dilution assay; conditions: YPAD medium, 30° C., 24 h
# Procedure: as §1, §2, §3
# C. guilliermondii T-47 = experiment: MIC80 broth double-dilution assay; conditions: YPAD medium, 30° C., 24 h
# Procedure: as §1, §3
# [2] = test system: C. albicans 742 (erg11ΔΔ/erg3ΔΔ mutant C. albicans strain); experiment: MIC80 broth double-dilution assay, strain lacking CYP51; conditions: YPAD medium, 30° C., 24 h; erg11ΔΔ/erg3ΔΔ mutant lacking CYP51
# Procedure: as §1
# (§4) The clinically used FLC and VOR act primarily by preventing ergosterol biosynthesis via inhibition of CYP51. Analysis was done to determine whether fungal growth inhibition by the hybrids required the presence of the ERG11 gene that encodes for CYP51. The antifungal activities of hybrids 1 and 5 and of FLC and VOR were determined against an erg11ΔΔ/erg3ΔΔ mutant C. albicans strain and against C. albicans SN152 from which this double knockout strain was derived (Table S2). […] Yeast growth was followed at OD600 over 48 h in 96-well plates containing serial double dilutions of the tested hybrids.
# as §3
# C. albicans SN152 = experiment: MIC80 broth double-dilution assay; conditions: YPAD medium, 30° C., 24 h; parent strain of the erg11ΔΔ/erg3ΔΔ mutant
# Procedure: as §1, §2, §4, §3
SMILES,MIC80 against C. albicans 24433 (C. albicans ATCC 24433) [µg/mL],MIC80 against C. tropicalis 660 (C. tropicalis 660) [µg/mL],MIC80 against C. dubliniensis T-99 (C. dubliniensis T-99) [µg/mL],MIC80 against C. albicans SC5314 (C. albicans SC5314) [µg/mL],MIC80 against C. albicans P-87 (C. albicans P-87) [µg/mL],MIC80 against C. parapsilosis 22019 [1] [µg/mL],MIC80 against C. albicans 90028 (C. albicans ATCC 90028) [µg/mL],MIC80 against C. guilliermondii T-47 (C. guilliermondii T-47) [µg/mL],MIC80 against C. albicans 742 [2] [µg/mL],MIC80 against C. albicans SN152 (C. albicans SN152) [µg/mL]
CC(C)Cc1ccc([C@H](C)C(=O)NC[C@@](O)(Cn2cncn2)c2ccc(F)cc2F)cc1 [Hybrid 4],2,>64,0.03,1,0.5,8,1,16,>64,1
C[C@@H](C(=O)NC[C@](O)(Cn1cncn1)c1ccc(F)cc1F)c1ccc(-c2ccccc2)c(F)c1 [Hybrid 6],0.12,8,2,0.03,0.03,2,0.12,2,>64,0.06
C[C@@H](C(=O)NC[C@@](O)(Cn1cncn1)c1ccc(F)cc1F)c1ccc(-c2ccccc2)c(F)c1 [Hybrid 7],16,64,0.5,4,4,8,8,32,64,8
C[C@H](C(=O)NC[C@@](O)(Cn1cncn1)c1ccc(F)cc1F)c1ccc(-c2ccccc2)c(F)c1 [Hybrid 8],>64,>64,2,32,64,64,64,64,>64,64
COc1ccc2cc([C@H](C)C(=O)NC[C@](O)(Cn3cncn3)c3ccc(F)cc3F)ccc2c1 [Hybrid 9],0.5,2,4,0.25,0.25,1,0.25,2,64,0.012
COc1ccc2cc([C@@H](C)C(=O)NC[C@@](O)(Cn3cncn3)c3ccc(F)cc3F)ccc2c1 [Hybrid 11],1,8,8,0.5,1,4,1,8,>64,0.5
COc1ccc2cc([C@H](C)C(=O)NC[C@@](O)(Cn3cncn3)c3ccc(F)cc3F)ccc2c1 [Hybrid 12],4,>64,32,2,4,4,4,32,>64,2
C[C@H](C(=O)NC[C@](O)(Cn1cncn1)c1ccc(F)cc1F)c1cccc(C(=O)c2ccccc2)c1 [Hybrid 13],4,16,64,2,4,8,2,32,>64,2
C[C@@H](C(=O)NC[C@](O)(Cn1cncn1)c1ccc(F)cc1F)c1cccc(C(=O)c2ccccc2)c1 [Hybrid 14],1,16,4,1,1,8,1,16,>64,0.5
C[C@@H](C(=O)NC[C@@](O)(Cn1cncn1)c1ccc(F)cc1F)c1cccc(C(=O)c2ccccc2)c1 [Hybrid 15],>64,>64,16,>64,>64,>64,>64,>64,>64,>64
C[C@H](C(=O)NC[C@@](O)(Cn1cncn1)c1ccc(F)cc1F)c1cccc(C(=O)c2ccccc2)c1 [Hybrid 16],>64,>64,16,>64,>64,>64,>64,>64,>64,>64
O=C(NC[C@@](O)(Cn1cncn1)c1ccc(F)cc1F)c1cccnc1Nc1cccc(C(F)(F)F)c1 [Hybrid 18],8,>64,16,16,16,8,16,>64,64,8
O=C(NC[C@@](O)(Cn1cncn1)c1ccc(F)cc1F)c1cc(-c2ccc(F)cc2F)ccc1O [Hybrid 20],16,>64,0.5,8,8,8,16,>64,32,8
